Reference: patent publication US12568972B2, “Pyridazinol compounds and derivatives, preparation methods, herbicidal compositions and applications thereof” (Qingdao Kingagroot Chemical Compound Co., Ltd., priority 2018, dated 2026)

Key:
Experiment in all cases: Post-emergence test, weed control effect
Type in all cases: in vivo
Conditions in all cases: after 3 weeks
Amaranthus retroflexus = test system: Amaranthus retroflexus
Procedure, shortened: (§1)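 Score 0-10 (10 = completely dead, 1 = below 20%, 0 = no effect) from fresh-weight growth inhibition, read 3 weeks after a post-emergence spray. Greenhouse pot plants at 2-3 leaves; spray solution acetone/Tween-80/water with 80% vegetable oil methyl ester synergist at 1500 g/ha.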

Chenopodiaceae = test system: Chenopodiaceae
Procedure, shortened: as §1

Rorippa indica = test system: Rorippa indica
Procedure, shortened: as §1

Veronica polita = test system: Veronica polita
Procedure, shortened: as §1

CCC(=O)Oc1cc(C(F)(F)F)nnc1-c1ccc(F)c(F)c1 [Compound 1-3]
10: weed control effect, Amaranthus retroflexus (activity level) (Amaranthus retroflexus; Dose 3000 g/ha) | weed control effect, Chenopodiaceae (activity level) (Chenopodiaceae; Dose 3000 g/ha) | weed control effect, Rorippa indica (activity level) (Rorippa indica; Dose 3000 g/ha) | weed control effect, Veronica polita (activity level) (Veronica polita; Dose 3000 g/ha)

Oc1cc(C(F)(F)F)nnc1-c1ccc2cnccc2c1 [Compound 634]
10: weed control effect (activity level), Amaranthus retroflexus (Amaranthus retroflexus; Dose 3000 g/ha) | weed control effect (activity level), Chenopodiaceae (Chenopodiaceae; Dose 3000 g/ha) | weed control effect (activity level), Rorippa indica (Rorippa indica; Dose 3000 g/ha) | weed control effect (activity level), Veronica polita (Veronica polita; Dose 3000 g/ha)

Oc1cc(C(F)(F)F)nnc1-c1cccc2cnccc12 [Compound 636]
10: weed control effect (activity level), Amaranthus retroflexus (Amaranthus retroflexus; Dose 3000 g/ha) | weed control effect (activity level), Chenopodiaceae (Chenopodiaceae; Dose 3000 g/ha) | weed control effect (activity level), Rorippa indica (Rorippa indica; Dose 3000 g/ha) | weed control effect (activity level), Veronica polita (Veronica polita; Dose 3000 g/ha)

Oc1cc(C(F)(F)F)nnc1-c1cncc(Cl)c1Cl [Compound 996]
10: weed control effect (activity level), Amaranthus retroflexus (Amaranthus retroflexus; Dose 3000 g/ha) | weed control effect (activity level), Chenopodiaceae (Chenopodiaceae; Dose 3000 g/ha) | weed control effect (activity level), Rorippa indica (Rorippa indica; Dose 3000 g/ha) | weed control effect (activity level), Veronica polita (Veronica polita; Dose 3000 g/ha)

Oc1cc(C(F)(F)F)nnc1-c1c(F)cccc1Br [Compound 47]
10: weed control effect (activity level), Amaranthus retroflexus (Amaranthus retroflexus; dose 1000 g/ha) | weed control effect (activity level), Chenopodiaceae (Chenopodiaceae; dose 1000 g/ha) | weed control effect (activity level), Rorippa indica (Rorippa indica; dose 1000 g/ha) | weed control effect (activity level), Veronica polita (Veronica polita; dose 1000 g/ha)

CCCCCCCCC(=O)Oc1cc(C(F)(F)F)nnc1-c1cccc(Br)c1 [Compound 1-15]
10: weed control effect, Amaranthus retroflexus (activity level) (Amaranthus retroflexus; Dose 3000 g/ha) | weed control effect, Chenopodiaceae (activity level) (Chenopodiaceae; Dose 3000 g/ha) | weed control effect, Rorippa indica (activity level) (Rorippa indica; Dose 3000 g/ha) | weed control effect, Veronica polita (activity level) (Veronica polita; Dose 3000 g/ha)

CCCCCC(=O)Oc1cc(C(F)(F)F)nnc1-c1ccc(C#N)cc1 [Compound 1-10]
10: weed control effect, Amaranthus retroflexus (activity level) (Amaranthus retroflexus; Dose 3000 g/ha) | weed control effect, Chenopodiaceae (activity level) (Chenopodiaceae; Dose 3000 g/ha) | weed control effect, Rorippa indica (activity level) (Rorippa indica; Dose 3000 g/ha) | weed control effect, Veronica polita (activity level) (Veronica polita; Dose 3000 g/ha)

CN1CCN(S(=O)(=O)Oc2cc(C(F)(F)F)nnc2-c2ccc(F)cc2)CC1 [Compound 1-125]
10: weed control effect, Amaranthus retroflexus (activity level) (Amaranthus retroflexus; Dose 3000 g/ha) | weed control effect, Chenopodiaceae (activity level) (Chenopodiaceae; Dose 3000 g/ha) | weed control effect, Rorippa indica (activity level) (Rorippa indica; Dose 3000 g/ha) | weed control effect, Veronica polita (activity level) (Veronica polita; Dose 3000 g/ha)

O=S(=O)(Oc1cc(C(F)(F)F)nnc1-c1ccc(C(F)(F)F)cc1)c1ccc2oncc2c1 [Compound 1-148]
10: weed control effect, Amaranthus retroflexus (activity level) (Amaranthus retroflexus; Dose 3000 g/ha) | weed control effect, Chenopodiaceae (activity level) (Chenopodiaceae; Dose 3000 g/ha) | weed control effect, Rorippa indica (activity level) (Rorippa indica; Dose 3000 g/ha) | weed control effect, Veronica polita (activity level) (Veronica polita; Dose 3000 g/ha)

CCc1cc(-c2nnc(C(F)(F)F)cc2O)n(C)n1 [Compound 780]
10: weed control effect (activity level), Amaranthus retroflexus (Amaranthus retroflexus; Dose 3000 g/ha) | weed control effect (activity level), Chenopodiaceae (Chenopodiaceae; Dose 3000 g/ha) | weed control effect (activity level), Rorippa indica (Rorippa indica; Dose 3000 g/ha) | weed control effect (activity level), Veronica polita (Veronica polita; Dose 3000 g/ha)

CCCOC(=S)Oc1cc(C(F)(F)F)nnc1-c1ccc(OC)cc1 [Compound 1-156]
10: weed control effect, Amaranthus retroflexus (activity level) (Amaranthus retroflexus; Dose 3000 g/ha) | weed control effect, Chenopodiaceae (activity level) (Chenopodiaceae; Dose 3000 g/ha) | weed control effect, Rorippa indica (activity level) (Rorippa indica; Dose 3000 g/ha) | weed control effect, Veronica polita (activity level) (Veronica polita; Dose 3000 g/ha)

CN(C)c1ccc(-c2nnc(C(F)(F)F)cc2O)cc1 [Compound 97]
10: weed control effect (activity level), Amaranthus retroflexus (Amaranthus retroflexus; dose 1000 g/ha) | weed control effect (activity level), Chenopodiaceae (Chenopodiaceae; dose 1000 g/ha) | weed control effect (activity level), Rorippa indica (Rorippa indica; dose 1000 g/ha) | weed control effect (activity level), Veronica polita (Veronica polita; dose 1000 g/ha)

Fc1ccc(-c2nnc(C(F)(F)F)cc2OCc2ccccc2)cc1F [Compound 1-210]
10: weed control effect, Amaranthus retroflexus (activity level) (Amaranthus retroflexus; Dose 3000 g/ha) | weed control effect, Chenopodiaceae (activity level) (Chenopodiaceae; Dose 3000 g/ha) | weed control effect, Rorippa indica (activity level) (Rorippa indica; Dose 3000 g/ha) | weed control effect, Veronica polita (activity level) (Veronica polita; Dose 3000 g/ha)

CCCCCOC(=O)Oc1cc(C(F)(F)F)nnc1-c1ccc(F)c(F)c1 [Compound 1-31]
10: weed control effect, Amaranthus retroflexus (activity level) (Amaranthus retroflexus; Dose 3000 g/ha) | weed control effect, Chenopodiaceae (activity level) (Chenopodiaceae; Dose 3000 g/ha) | weed control effect, Rorippa indica (activity level) (Rorippa indica; Dose 3000 g/ha) | weed control effect, Veronica polita (activity level) (Veronica polita; Dose 3000 g/ha)

Oc1cc(C(F)(F)F)nnc1-c1cccc(F)c1 [Compound 736]
10: weed control effect (activity level), Amaranthus retroflexus (Amaranthus retroflexus; dose 1000 g/ha) | weed control effect (activity level), Chenopodiaceae (Chenopodiaceae; dose 1000 g/ha) | weed control effect (activity level), Rorippa indica (Rorippa indica; dose 1000 g/ha) | weed control effect (activity level), Veronica polita (Veronica polita; dose 1000 g/ha)

O=C(CCc1ccccc1)Oc1cc(C(F)(F)F)nnc1-c1ccc(F)cc1 [Compound 1-99]
10: weed control effect, Amaranthus retroflexus (activity level) (Amaranthus retroflexus; Dose 3000 g/ha) | weed control effect, Chenopodiaceae (activity level) (Chenopodiaceae; Dose 3000 g/ha) | weed control effect, Rorippa indica (activity level) (Rorippa indica; Dose 3000 g/ha) | weed control effect, Veronica polita (activity level) (Veronica polita; Dose 3000 g/ha)

O=C(Oc1cc(C(F)(F)F)nnc1-c1ccc(F)cc1)C(F)(F)C(F)(F)C(F)(F)F [Compound 1-25]
10: weed control effect, Amaranthus retroflexus (activity level) (Amaranthus retroflexus; Dose 3000 g/ha) | weed control effect, Chenopodiaceae (activity level) (Chenopodiaceae; Dose 3000 g/ha) | weed control effect, Rorippa indica (activity level) (Rorippa indica; Dose 3000 g/ha) | weed control effect, Veronica polita (activity level) (Veronica polita; Dose 3000 g/ha)

Cc1ccc(-c2nnc(C(F)(F)F)cc2O)c(F)c1 [Compound 59]
10: weed control effect (activity level), Amaranthus retroflexus (Amaranthus retroflexus; dose 1000 g/ha) | weed control effect (activity level), Chenopodiaceae (Chenopodiaceae; dose 1000 g/ha) | weed control effect (activity level), Rorippa indica (Rorippa indica; dose 1000 g/ha) | weed control effect (activity level), Veronica polita (Veronica polita; dose 1000 g/ha)

Oc1cc(C(F)(F)F)nnc1-c1cc2ccccc2cn1 [Compound 743]
10: weed control effect (activity level), Amaranthus retroflexus (Amaranthus retroflexus; Dose 3000 g/ha) | weed control effect (activity level), Chenopodiaceae (Chenopodiaceae; Dose 3000 g/ha) | weed control effect (activity level), Rorippa indica (Rorippa indica; Dose 3000 g/ha) | weed control effect (activity level), Veronica polita (Veronica polita; Dose 3000 g/ha)

Oc1cc(C(F)(F)F)nnc1-c1cncc(F)c1 [Compound 963]
10: weed control effect (activity level), Amaranthus retroflexus (Amaranthus retroflexus; Dose 3000 g/ha) | weed control effect (activity level), Chenopodiaceae (Chenopodiaceae; Dose 3000 g/ha) | weed control effect (activity level), Rorippa indica (Rorippa indica; Dose 3000 g/ha) | weed control effect (activity level), Veronica polita (Veronica polita; Dose 3000 g/ha)

Oc1cc(C(F)(F)F)nnc1-c1ccc(Br)nc1 [Compound 966]
10: weed control effect (activity level), Amaranthus retroflexus (Amaranthus retroflexus; Dose 3000 g/ha) | weed control effect (activity level), Chenopodiaceae (Chenopodiaceae; Dose 3000 g/ha) | weed control effect (activity level), Rorippa indica (Rorippa indica; Dose 3000 g/ha) | weed control effect (activity level), Veronica polita (Veronica polita; Dose 3000 g/ha)

Oc1cc(C(F)(F)F)nnc1-c1cnccc1I [Compound 972]
10: weed control effect (activity level), Amaranthus retroflexus (Amaranthus retroflexus; Dose 3000 g/ha) | weed control effect (activity level), Chenopodiaceae (Chenopodiaceae; Dose 3000 g/ha) | weed control effect (activity level), Rorippa indica (Rorippa indica; Dose 3000 g/ha) | weed control effect (activity level), Veronica polita (Veronica polita; Dose 3000 g/ha)

CC(C)(C)SC(=O)Oc1cc(C(F)(F)F)nnc1-c1cc(Cl)ccc1Cl [Compound 1-47]
10: weed control effect, Amaranthus retroflexus (activity level) (Amaranthus retroflexus; Dose 3000 g/ha) | weed control effect, Chenopodiaceae (activity level) (Chenopodiaceae; Dose 3000 g/ha) | weed control effect, Rorippa indica (activity level) (Rorippa indica; Dose 3000 g/ha) | weed control effect, Veronica polita (activity level) (Veronica polita; Dose 3000 g/ha)

Oc1cc(C(F)(F)F)nnc1-c1ccc(C2CC2Cl)cc1 (stereo not drawn) [Compound 111]
10: weed control effect (activity level), Amaranthus retroflexus (Amaranthus retroflexus; dose 1000 g/ha) | weed control effect (activity level), Chenopodiaceae (Chenopodiaceae; dose 1000 g/ha) | weed control effect (activity level), Rorippa indica (Rorippa indica; dose 1000 g/ha) | weed control effect (activity level), Veronica polita (Veronica polita; dose 1000 g/ha)

O=C(Oc1cc(C(F)(F)F)nnc1-c1ccc(F)cc1)N1CCCCC1 [Compound 1-67]
10: weed control effect, Amaranthus retroflexus (activity level) (Amaranthus retroflexus; Dose 3000 g/ha) | weed control effect, Chenopodiaceae (activity level) (Chenopodiaceae; Dose 3000 g/ha) | weed control effect, Rorippa indica (activity level) (Rorippa indica; Dose 3000 g/ha) | weed control effect, Veronica polita (activity level) (Veronica polita; Dose 3000 g/ha)

Oc1cc(C(F)(F)F)nnc1-c1ccc2occc2c1 [Compound 595]
10: weed control effect (activity level), Amaranthus retroflexus (Amaranthus retroflexus; Dose 3000 g/ha) | weed control effect (activity level), Chenopodiaceae (Chenopodiaceae; Dose 3000 g/ha) | weed control effect (activity level), Rorippa indica (Rorippa indica; Dose 3000 g/ha) | weed control effect (activity level), Veronica polita (Veronica polita; Dose 3000 g/ha)

CC(C)=Cc1nnc(C(F)(F)F)cc1O [Compound 1523]
10: weed control effect (activity level), Amaranthus retroflexus (Amaranthus retroflexus; Dose 3000 g/ha) | weed control effect (activity level), Chenopodiaceae (Chenopodiaceae; Dose 3000 g/ha) | weed control effect (activity level), Rorippa indica (Rorippa indica; Dose 3000 g/ha) | weed control effect (activity level), Veronica polita (Veronica polita; Dose 3000 g/ha)

Oc1cc(C(F)(F)F)nnc1-c1cnc(F)cc1Cl [Compound 1001]
10: weed control effect (activity level), Amaranthus retroflexus (Amaranthus retroflexus; Dose 3000 g/ha) | weed control effect (activity level), Chenopodiaceae (Chenopodiaceae; Dose 3000 g/ha) | weed control effect (activity level), Rorippa indica (Rorippa indica; Dose 3000 g/ha) | weed control effect (activity level), Veronica polita (Veronica polita; Dose 3000 g/ha)

Cc1ccc(F)c(-c2nnc(C(F)(F)F)cc2O)c1 [Compound 57]
10: weed control effect (activity level), Amaranthus retroflexus (Amaranthus retroflexus; dose 1000 g/ha) | weed control effect (activity level), Chenopodiaceae (Chenopodiaceae; dose 1000 g/ha) | weed control effect (activity level), Rorippa indica (Rorippa indica; dose 1000 g/ha) | weed control effect (activity level), Veronica polita (Veronica polita; dose 1000 g/ha)

O=C(Oc1cc(C(F)(F)F)nnc1-c1ccc(F)cc1)c1ccc2ccccc2c1 [Compound 1-114]
10: weed control effect, Amaranthus retroflexus (activity level) (Amaranthus retroflexus; Dose 3000 g/ha) | weed control effect, Chenopodiaceae (activity level) (Chenopodiaceae; Dose 3000 g/ha) | weed control effect, Rorippa indica (activity level) (Rorippa indica; Dose 3000 g/ha) | weed control effect, Veronica polita (activity level) (Veronica polita; Dose 3000 g/ha)
